Consider two compounds from patent US20100120788A1, “IDENTIFICATION OF POLYNUCLEOTIDES FOR […] OF COMPOUNDS THAT […] WITH AND/OR MODULATE PROTEIN TYROSINE KINASES AND/OR PROTEIN TYROSINE KINASE […] IN PROSTATE CELLS” (Bristol-Myers Squibb Company, priority 2007, published 2010).

Assay [1] concerns imatinib-resistant BCR-ABL mutants. Particulars: number of mutants of those tested; cited from earlier work.
The test system of assay [2] is secreted uPA protein in PC3 cells. Briefly: uPA protein ELISA assay of culture medium. The format is cell-based, human. The note with it: different doses, 24 h, per 50,000 viable cells. The text has this:
FIG. 3. PLAU gene expression and regulation by dasatinib analyzed at mRNA and protein levels. (A) Differential baseline expression of PLAU gene between resistant (R, in black) and sensitive (S, in red) cell lines. The X-values are the expression level in log2-scale. The resistant cell line expressing high level of PLAU was WPMY1 and the sensitive cell line expressing low level of PLAU was LNCaP. (B) Down-regulation of PLAU mRNA level by dasatinib-treatment in 5 sensitive cell lines. The cells were treated with 100 nM dasatinib (+D) or DMSO (Ctrl) for 48 hours. The p value was 0.048 in paired t-test, indicating a significant reduction of PLAU mRNA following dasatinib treatment. (C) Correlation between dasatinib-induced PLAU mRNA down-regulation with the sensitivity of cell lines to dasatinib. […] The amount of uPA protein secreted into the culture medium by 50,000 viable cells was assessed by ELISA assay. […]
Cell were seeded in 24-well plates at density of 25,000 cells/well. […] Total number of cells were also quantitated using a cell counter, and the number of viable cells were assessed with Trypan Blue. The amount of uPA protein in the supernatant was determined using the uPA ELISA kit (America Diagnostica, Stamford, Conn.), and the concentrations of uPA secreted by 50,000 viable cells into the medium were calculated.

Take `Cc1cn(-c2cc(NC(=O)c3ccc(C)c(Nc4nccc(-c5cccnc5)n4)c3)cc(C(F)(F)F)c2)cn1` [AMN107]: in assay [1], the “imatinib-resistant BCR-ABL mutants against which significantly active” value is listed as 32/33.

`CC(=O)O[C@H]1C(=O)[C@@]2(C)[C@H]([C@H](OC(=O)c3ccccc3)[C@]3(O)C[C@H](OC(=O)[C@H](O)[C@@H](NC(=O)c4ccccc4)c4ccccc4)C(C)=C1C3(C)C)[C@]1(OC(C)=O)CO[C@@H]1C[C@@H]2O` [TAXOL®]: the “amount of uPA protein secreted into the growth medium” value in assay [2] is reported as “did not see a dose-dependent reduction”.
